Assay results from ChEMBL document CHEMBL1201862, “PubChem BioAssay data set” (2004).
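1) Cells in 96-well plates. 2) Compound, 48 h, 5 concentrations. 3) Linear interpolation between surrounding doses. 4) Unreached endpoint = highest concentration. The concentration for 50% growth inhibition is given as GI50.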 Activity calls are given as the source filed them. Rule as the data show it: active = GI50 up to about 1.1 µM and inactive = higher.

Tests used:
Test in all cases: NCI-60 cell line screen, 48 h
[1] = tested on: SNB-19
[2] = tested on: COLO 205
[3] = tested on: SF-295
[4] = tested on: UACC-257
[5] = tested on: NCI-H460
[6] = tested on: SK-MEL-28
[7] = tested on: OVCAR-3
[8] = tested on: CCRF-CEM
[9] = tested on: OVCAR-8
[10] = tested on: IGROV-1
[11] = tested on: SN12C
[12] = tested on: LXFL 529
[13] = tested on: SF-268
[14] = tested on: KM-20L2
[15] = tested on: SK-MEL-2
[16] = tested on: M14
[17] = tested on: DMS-273
[18] = tested on: CAKI-1
[19] = tested on: NCI-H522
[20] = tested on: XF498
[21] = tested on: SK-OV-3
[22] = tested on: Malme-3M
[23] = tested on: DLD-1
[24] = tested on: HT-29
[25] = tested on: HOP-18
[26] = tested on: KM12
[27] = tested on: U-251
[28] = tested on: M19-MEL
[29] = tested on: DMS-114
[30] = tested on: UO-31
[31] = tested on: HCT-15
[32] = tested on: TK-10
[33] = tested on: HOP-62
[34] = tested on: OVCAR-4
[35] = tested on: HL-60
[36] = tested on: OVCAR-5
[37] = tested on: ACHN
[38] = tested on: SF-539
[39] = tested on: MOLT-4
[40] = tested on: LOX IMVI
[41] = tested on: UACC-62
[42] = tested on: SK-MEL-5
[43] = tested on: RPMI-8226
[44] = tested on: A498
[45] = tested on: 786-0
[46] = tested on: SNB-75
[47] = tested on: NCI-H23
[48] = tested on: HOP-92
[49] = tested on: K562
[50] = tested on: EKVX
[51] = tested on: HCT-116

Measured: GI50

CCCN1CN(C(C(=O)N[C@@H]2C(=O)N3C2SC(C)(C)C3C(=O)O)c2ccc(O)cc2)CSC1=S (stereo partly specified)
> 100 µM: [31]
inactive: [1] > 100 µM | [2] 29.8 µM | [3] > 100 µM | [4] > 100 µM | [5] > 100 µM | [6] > 100 µM | [7] 23.6 µM | [8] > 100 µM | [9] > 100 µM | [10] > 100 µM | [11] > 100 µM | [12] 61.4 µM | [13] > 100 µM | [14] > 100 µM | [15] > 100 µM | [16] > 100 µM | [17] > 100 µM | [18] > 100 µM | [19] 22.6 µM | [20] > 100 µM | [21] > 100 µM | [22] > 100 µM | [23] 52.8 µM | [24] > 100 µM | [25] > 100 µM | [26] > 100 µM | [27] > 100 µM | [28] > 100 µM | [29] 19.1 µM | [30] > 100 µM | [32] > 100 µM | [33] > 100 µM | [34] > 100 µM | [35] > 100 µM | [36] > 100 µM | [37] > 100 µM | [38] > 100 µM | [39] > 100 µM | [40] 97.9 µM | [41] > 100 µM | [42] > 100 µM | [43] 62.1 µM | [44] > 100 µM | [45] > 100 µM | [46] > 100 µM | [47] > 100 µM | [48] > 100 µM | [49] 24.4 µM | [50] > 100 µM | [51] > 100 µM
